Patent US6350859B1, “Class BI and CI scavenger receptors” (Massachusetts Institute of Technology, priority 1994, dated 2002)

Legend:
[1] = biological target: T1, haSR-BI (Cricetulus griseus, UniProt Q60417); test: [3H]-liposome binding at 4° C. to haSR-BI in ldlA[haSR-BI] cells; parameters: species or system hamster; details: EDTA 1-10 mM
T1 construct: expressed in transfected cells
T1 sequence (Q60417 1-509): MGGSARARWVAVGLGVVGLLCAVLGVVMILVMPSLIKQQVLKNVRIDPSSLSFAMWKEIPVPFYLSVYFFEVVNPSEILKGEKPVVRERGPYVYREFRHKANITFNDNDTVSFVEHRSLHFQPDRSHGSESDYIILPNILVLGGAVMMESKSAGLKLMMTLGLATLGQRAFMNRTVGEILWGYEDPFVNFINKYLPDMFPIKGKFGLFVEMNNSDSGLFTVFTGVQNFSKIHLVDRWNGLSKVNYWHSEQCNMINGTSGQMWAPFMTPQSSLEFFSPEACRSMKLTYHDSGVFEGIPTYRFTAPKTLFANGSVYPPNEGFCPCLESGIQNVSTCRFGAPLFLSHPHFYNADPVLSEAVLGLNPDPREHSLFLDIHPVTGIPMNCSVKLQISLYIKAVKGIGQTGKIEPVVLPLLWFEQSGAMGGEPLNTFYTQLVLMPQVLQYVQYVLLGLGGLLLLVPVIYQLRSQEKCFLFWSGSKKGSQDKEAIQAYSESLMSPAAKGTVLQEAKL
Description: Unilamellar liposomes were made by extrusion through policarbonate membranes (Szoka et al., 1980). Phospholipid liposomes were prepared containing the indicated phospholipid, phosphatidycholine, and free cholesterol in a molar ratio of 1:1:1. The lipids were mixed in chloroform and dried by rotary evaporation for 30 min. For preparation of radiolabeled liposomes, 50-75 μCi of [^3H]DPPC(62 Ci/mmol) were added to the lipid mixtures before drying. The dried lipids were resuspended in 150 mM NaCl, 0.1 mM EDTA, 10 mM HEPES, pH 7.5 (Buffer A). […] The final phospholipid concentration was determined by the method of Bartlett (1959). The average diameters of unlabeled liposomes, which were determined from either two or three independent preparations using light scattering with a Coulter N4 plus light scatterer apparatus (Coulter Electronics Inc., Hialeah, Fla.), were: PS, 105; PC, 114: PA, 125; PE, 129; P1, 113; and SM, 131 nm. The number of phospholipid molecules/PS liposome was calculated as follows. […]
Ligand Binding Assays. […] The cells were then solubilized with […], and radioactivity and protein determinations were made as described above. […] The binding values are expressed as nanograms of bound ^125I-labeled protein or ng of total phospholipids from ^3H-labeled liposomes/milligram of cell protein. […]

[2] = tested on: Var-261 cells; test: 125I-AcLDL degradation and binding plus uptake at 37° C. in Var-261 cells; format: cell-based, Chinese hamster; details: for competition for 125I-AcLDL degradation: 125I-AcLDL 5 μg/ml, 5 hr
[3] = tested on: dSR-CI; test: Competitive inhibition of 125I-AcLDL degradation activity by CHO[dSR-CI]-2.6a cells; format: cell-based, Drosophila melanogaster
Description: (§1) Scavenger receptor activities at 37° C. were measured by ligand binding, uptake and degradation assays as described by Krieger, 1983; Freeman et al., 1991). Although binding and uptake at 37° C. were determined separately using dextran-sulfate to free surface bound lipoproteins from the cells as described for LDL receptor assays by Goldstein et al., 1983; Basu et al., 1983 Science 219, 871-873), this method for separating bound from internalized ligand for ^125I-AcLDL and scavenger receptors has not been independently validated. Accordingly, the values for binding and uptake were combined and are presented as binding plus uptake observed after a 5 hour incubation and are expressed as ng of ^125I-AcLDL protein per 5 hr per mg cell protein. Degradation activity is expressed as ng of ^125I-AcLDL protein degraded in 5 hours per mg of cell protein. The specific, high affinity values presented represent the differences between the results obtained in the presence (single determinations) and absence (duplicate determinations) of excess unlabeled competing ligand (75 to 200 μg/ml of M-BSA). Cell surface 4° C. binding was assayed using either method A or method B as indicated. In method A, cells were prechilled on ice for 15 min, re-fed with ^125I-AcLDL in ice-cold medium B supplemented with 10% (v/v) fetal bovine serum, with or without 75-200 μg/ml unlabeled M-BSA, and incubated 2 hr at 4° C. on a shaker. Cells were then washed rapidly three times with Tris wash buffer (50 mM Tris-HCl, 0.15M NaCl, pH 7.4) containing 2 mg/ml BSA, followed by two 5 min washes, and two rapid washes with Tris wash buffer without BSA. The cells were solubilized in 1 ml of 0.1N NaOH for 20 min at room temperature on a shaker, 30 μl were removed for protein determination, and the radioactivity in the remainder was determined using a LKB gamma counter. Method B differed from method A in that the cells were prechilled for 45 minutes, the medium contained 10 mM HEPES and 5% (v/v) human lipoprotein-deficient serum rather than fetal bovine serum, and the cell-associated radioactivity released by treatment with dextran sulfate was measured as described by Krieger, 1983; Freeman et al., 1991).
Competitive binding of AcLDL was performed to more accurately define the specificity of the AcLDL binding.

[4] = tested on: Var-261 cells; test: 125I-AcLDL binding at 4° C. to Var-261 cells, competition; parameters: species or system Chinese hamster; details: 125I-AcLDL 5 μg/ml, FIG. 3B: M-BSA 10, poly G 500, fucoidin 200, carrageenan 200, LDL 500 μg/ml
Description: as §1
(§2) To measure binding of AcLDL, on day 1, COS cells were transfected with the expression vector for the hamster scavenger receptor type BI (haSR-BI). On day 2 the transfected COS cells were plated in 6-well dishes (1×10^6 cells/well in medium A plus 1 mM sodium butyrate). […] On day 3 the binding of ^125I-AcLDL (5 μg/ml) at 4° C. in the absence or presence of the indicated competitors was measured using Method A. The values shown in the Figures represent the averages of duplicate determinations. […]

[5] = biological target: T1, haSR-BI; test: 125I-AcLDL binding at 4° C. to haSR-BI in transfected COS or ldlA cells; parameters: species or system hamster; details: ldlA[haSR-BI] cells, 125I-AcLDL 5 μg/ml, FIG. 3B: M-BSA 10, poly G 500, fucoidin 200, carrageenan 200, LDL 500 μg/ml
Description: as §1
HDL and VLDL binding to SR-BI and CD36 were conducted as described for LDL and modified LDL.
as §2

[6] = biological target: T2, CD36 (Homo sapiens, UniProt P16671); test: 125I-AcLDL degradation at 37° C. in COS cells transfected with CD36, competition; format: cell-based; details: 5 hr, FIG. 4B: M-BSA 4, AcLDL 500, fucoidin 200, poly I 500, poly G 500, ReLPS 250 μg/ml
T2 construct: expressed in transfected cells; host or cells: COS cells (transient)
Description: as §1
COS cells were transfected on day 1 with a plasmid encoding CD36. On day 2 the transfected cells were set in 6-well dishes at 1×10^6 cells/well in medium A plus 1 mM sodium butyrate. On day 3, 125I-AcLDL binding at 4° C. was measured. […] On day 3, degradation of ^125I-AcLDL (5 μg/ml) was measured after a 5 hr incubation at 37° C. in the absence (duplicate determinations) or presence (duplicate determinations) of the indicated competitors. […]

[7] = biological target: T3, murine type II macrophage scavenger receptor (mSR-AII) (Mus musculus, UniProt P30204); test: 125I-AcLDL degradation at 37° C. in COS cells expressing murine scavenger receptor type II; format: cell-based; details: for competition for 125I-AcLDL degradation: COS[mSR-AII] cells, 125I-AcLDL 5 μg/ml, 5 hr, 37° C.
T3 construct: expressed in transfected cells; host or cells: COS cells (transient)
T3 sequence (P30204 1-354 isoform P30204-2): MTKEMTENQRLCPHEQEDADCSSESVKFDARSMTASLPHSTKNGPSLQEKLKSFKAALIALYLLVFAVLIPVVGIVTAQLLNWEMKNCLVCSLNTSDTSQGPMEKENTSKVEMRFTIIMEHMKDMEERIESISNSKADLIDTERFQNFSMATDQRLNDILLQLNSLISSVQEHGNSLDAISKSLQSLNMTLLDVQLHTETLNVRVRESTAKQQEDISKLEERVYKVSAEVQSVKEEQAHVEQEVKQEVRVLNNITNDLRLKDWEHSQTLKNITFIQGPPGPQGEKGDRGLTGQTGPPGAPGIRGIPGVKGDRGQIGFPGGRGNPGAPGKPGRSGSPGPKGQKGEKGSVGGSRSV
Description: as §1, with “In method A, cells were prechilled on ice for 15 min, re-fed with ^125I-AcLDL in ice-cold medium B supplemented with 10% (v/v) fetal bovine serum, with or without 75-200 μg/ml unlabeled M-BSA, and incubated 2 hr at 4° C. on a shaker. Cells were then washed rapidly three times with Tris wash buffer (50 mM Tris-HCl, 0.15M NaCl, pH 7.4) containing 2 mg/ml BSA, followed by two 5 min washes, and two rapid washes with Tris wash buffer without BSA.” left out
COS cells were transfected on day 1 with murine scavenger receptor type II. […] On day 3, ^125I-AcLDL (5 μg/ml) in medium B plus 10% fetal bovine serum was added to the cells and degradation was measured after a 5 hr incubation at 37° C. in the absence (duplicate determinations) or presence (duplicate determinations) of the indicated amounts of polyanions. […]

T2 sequence (P16671 whole entry): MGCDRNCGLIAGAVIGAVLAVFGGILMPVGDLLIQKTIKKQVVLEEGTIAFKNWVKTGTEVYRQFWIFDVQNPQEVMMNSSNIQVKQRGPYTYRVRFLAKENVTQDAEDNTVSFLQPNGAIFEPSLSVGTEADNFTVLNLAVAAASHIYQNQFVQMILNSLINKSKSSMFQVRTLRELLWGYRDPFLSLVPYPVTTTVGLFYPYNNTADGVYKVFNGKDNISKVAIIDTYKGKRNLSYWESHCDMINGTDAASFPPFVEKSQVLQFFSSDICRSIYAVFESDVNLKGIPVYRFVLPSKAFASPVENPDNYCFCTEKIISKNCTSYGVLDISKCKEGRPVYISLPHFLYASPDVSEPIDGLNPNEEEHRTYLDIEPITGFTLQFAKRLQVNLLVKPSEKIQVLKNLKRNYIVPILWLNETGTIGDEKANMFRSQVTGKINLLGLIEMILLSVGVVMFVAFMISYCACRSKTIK

Row | Compound | Degradation (% No Competitor) ([3]; competitor 400 μg/ml) | inhibition of 125I-AcLDL binding [4] | competition for 125I-AcLDL degradation ([2]; 37° C.) | inhibition of 125I-AcLDL binding [5] | inhibition of receptor activity, 125I-AcLDL degradation [6] | other results
1 | O=C(O)CN(CCN(CC(=O)O)CC(=O)O)CC(=O)O [EDTA] | – | – | – | – | – | effect on PS liposome binding [1]: not inhibited
2 | CCN(CC)CCCC(C)Nc1ccnc2cc(Cl)ccc12 (stereo not drawn) [chloroquine] | – | – | – | – | – | effect on 125I-AcLDL binding plus uptake ([2]; 37° C.): not; effect on 125I-AcLDL degradation ([2]; 37° C.): inhibited
3 | Dextran | 100 % No Competitor | – | – | – | – | –
4 | M-BSA: maleylated BSA | 6.7 % No Competitor | inhibited | inhibited | inhibited | inhibited | –
5 | Poly D-glutamic acid | 34 % No Competitor | – | – | – | – | –
6 | Polyriboguanylic acid [poly G] | – | competitors | effective competitors | not inhibited | not | competition for 125I-AcLDL degradation [7]: effective competitors
7 | carrageenan | – | competitors | – | not inhibited | – | –
8 | dextran sulfate | – | – | – | – | – | Degradation (% No Competitor) ([3]; competitor concentration not given): 4.2 % No Competitor
9 | fucoidin | – | competitors | effective competitors | not inhibited | not | competition for 125I-AcLDL degradation [7]: effective competitors
10 | polyriboinosinic acid [poly I] | 2.7 % No Competitor | – | – | – | not | inhibition of 125I-AcLDL degradation ([2]; competitor at 400 μg/ml): 34%; inhibition of 125I-AcLDL degradation ([7]; class A scavenger receptors, competitor at 2.5 μg/ml): greater than 50%
